Consider 17 compounds from ChEMBL document CHEMBL3769335, “Non-symmetrical furan-amidines as novel leads for the treatment of cancer and malaria” (Eur J Med Chem, 2016).

Structures are written as SMILES. Calls of active or inactive are those of the source. The rule behind the calls is not given here.

The subject of data set [1] is MDA-MB-468. Put plainly: Cytotoxicity against human MDA-MB-468 cells after 96 hrs by MTT assay. In kind it is functional, cell-based. The following applies: MDA-MB-468, 96 h. A general note: Tetrazolium assays rely on reduction of a dye to a coloured formazan, in cell work by metabolically active cells.
Data set [2] concerns the target T1, Ribosyldihydronicotinamide dehydrogenase [quinone] (Homo sapiens, UniProt P16083).
T1 sequence (P16083 whole entry): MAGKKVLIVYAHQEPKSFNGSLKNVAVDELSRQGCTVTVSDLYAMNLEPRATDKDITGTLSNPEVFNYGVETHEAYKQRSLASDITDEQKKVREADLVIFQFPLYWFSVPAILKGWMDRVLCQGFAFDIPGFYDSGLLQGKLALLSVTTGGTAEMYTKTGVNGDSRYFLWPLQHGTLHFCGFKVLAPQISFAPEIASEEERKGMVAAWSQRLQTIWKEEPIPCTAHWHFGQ
Briefly: Inhibition of human recombinant NQO2 using DCPIPas substrate and NRH as cofactor measured for 1 min by spectrophotometry in the prsence of BSA.

In data set [3] the target is T1, Ribosyldihydronicotinamide dehydrogenase [quinone]. Briefly: Inhibition of human recombinant NQO2 using DCPIPas substrate and NRH as cofactor measured for 1 min by spectrophotometry in the absence of BSA.
For data set [4], the system named is MCF7. Briefly: Cytotoxicity against human MCF7 cells after 96 hrs by MTT assay. It counts as functional, cell-based. As to conditions: MCF7, 96 h.
Data set [5] deals with MDA-MB-231. Briefly: Cytotoxicity against human MDA-MB-231 cells after 96 hrs by MTT assay. It counts as functional, cell-based. The following applies: MDA-MB-231, 96 h.
Data set [6] deals with T47D. Briefly: Cytotoxicity against human T47D cells after 96 hrs by MTT assay. It counts as functional, cell-based.
The subject of a further data set is Calf thymus DNA. As to conditions: Bos taurus.
The nature of data set [7]: Drug uptake in Plasmodium falciparum 3D7 nucleus. In kind it is ADME.
The next data set concerns Plasmodium falciparum. Briefly: Antimalarial activity against Plasmodium falciparum 3D7 infected in erythrocyte assessed as growth inhibition after 4 days by flow cytometry. It counts as functional, organism-based. The following applies: 3D7, 96 h.
The target in data set [8] is T1, Ribosyldihydronicotinamide dehydrogenase [quinone]. Put plainly: Inhibition of human recombinant NQO2 using DCPIP as substrate and NRH as cofactor in absence of BSA.
Data set [9] has as its system T47D. Put plainly: Cytotoxicity against human T47D cells at 10 uM after 96 hrs by MTT assay. In kind it is functional, cell-based.
Data set [10] addresses NAD(P)H dehydrogenase [quinone] 1 (Homo sapiens) (UniProt P15559). Put plainly: Inhibition of human recombinant NQO1 using NADH as substrate at 10 uM measured for 1 min by spectrophotometry in absence of BSA.
Data set [11] shares this target. Briefly: Inhibition of human recombinant NQO1 using NADH as substrate at 10 uM measured for 1 min by spectrophotometry in presence of BSA.
For data set [12], the system named is MCF7. Briefly: Cytotoxicity against human MCF7 cells at 10 uM after 96 hrs by MTT assay. It counts as functional, cell-based.
Data set [13] concerns MDA-MB-231. Briefly: Cytotoxicity against human MDA-MB-231 cells at 10 uM after 96 hrs by MTT assay. It counts as functional, cell-based.
Data set [14] has as its system MDA-MB-468. Put plainly: Cytotoxicity against human MDA-MB-468 cells at 10 uM after 96 hrs by MTT assay. It counts as functional, cell-based.

Sequence of NAD(P)H dehydrogenase [quinone] 1 (Homo sapiens) (P15559 whole entry): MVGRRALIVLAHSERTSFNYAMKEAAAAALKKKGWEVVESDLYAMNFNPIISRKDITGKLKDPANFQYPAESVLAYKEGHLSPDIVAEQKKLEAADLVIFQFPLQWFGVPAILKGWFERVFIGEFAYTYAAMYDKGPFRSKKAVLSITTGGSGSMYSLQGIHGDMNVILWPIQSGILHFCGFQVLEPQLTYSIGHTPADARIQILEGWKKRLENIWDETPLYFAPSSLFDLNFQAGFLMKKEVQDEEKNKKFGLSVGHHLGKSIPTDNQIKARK
Description for Calf thymus DNA: Binding affinity to calf thymus DNA assessed as change in melting temperature by UV-visible spectrophometry

As a reminder, the IC50 is the concentration at which inhibition is half-maximal. As to `CC(C)(C)c1ccc(-c2ccc(-c3ccc(C(=N)N)cc3)o2)cc1`, the IC50 in the data set on MDA-MB-468 [1] was determined as 3800 nM; in data set [2], 712 nM; in [3], 510 nM; with MCF7 [4], 3700 nM; with MDA-MB-231 [5], 3200 nM; in the data set on T47D [6], 3600 nM.
As a reminder, the ΔTm is the shift of the melting midpoint relative to a reference. As for `COc1cccc2c1C(=O)c1c(O)c3c(c(O)c1C2=O)C[C@@](O)(C(=O)CO)C[C@@H]3O[C@H]1C[C@H](N)[C@H](O)[C@H](C)O1`, in the data set on Calf thymus DNA, the ΔTm stood at 20.5 °C.
Turning to `CC(=O)O.N=C(N)c1ccc(-c2ccc(-c3ccc(F)cc3)o2)cc1`, the IC50 came to 3800 nM with MDA-MB-468 [1]; 836 nM in data set [2]; 9.6 nM with Plasmodium falciparum; 505 nM in [3]; 3700 nM in the data set with MCF7 [4]; 3200 nM in the data set with MDA-MB-231 [5]. The IC50 in the data set with T47D [6] was 3600 nM. For the same compound, the Drug uptake entry in data set [7] is listed as “Not Active”. Also, the ΔTm with Calf thymus DNA worked out at 3.2 °C.
On to `CC(=O)O.CC(=O)O.N=C(N)c1ccc(-c2ccc(-c3ccc(C(=N)N)cc3)o2)cc1`, for which the IC50 with MDA-MB-468 [1] came out at 14000 nM; in data set [2] it was 72 nM; in data set [8], 630 nM; in data set [3], 35 nM; in the data set on MCF7 [4], 13600 nM; in the data set with MDA-MB-231 [5] it was 12500 nM. Moreover, inhibition in the data set on T47D [6] was half-maximal at 12800 nM (IC50). In data set [7], the Drug uptake entry is given as “Active”. The ΔTm with Calf thymus DNA came out at 20 °C.
With `Oc1ccc(/C=C/c2cc(O)cc(O)c2)cc1` [RESVERATROL], the IC50 in the data set with MDA-MB-468 [1] was determined as 58000 nM; in the data set on MCF7 [4] it was 62000 nM; in the data set with MDA-MB-231 [5], 57000 nM; with T47D [6], 59000 nM.
For the compound `N=C(N)c1ccc(-c2ccc(-c3ccc(Br)cc3)o2)cc1`, the IC50 with MDA-MB-468 [1] worked out at 2500 nM; in data set [2], 185 nM; in [3], 27 nM; in the data set with MCF7 [4] it was 2600 nM; with MDA-MB-231 [5], 2700 nM; in the data set on T47D [6], 2400 nM. The ΔTm with Calf thymus DNA amounted to 4.4 °C.
Consider `N=C(N)c1cccc(-c2ccc(-c3ccccc3)o2)c1`, for which the result in the data set with T47D [9], in the data set with MCF7 [12], in the data set on MDA-MB-231 [13] and with MDA-MB-468 [14] was inactive. Further, the inhibition result in [10] and in [11] was “inactive” throughout.
Regarding `N=C(N)c1ccc(-c2ccc(-c3ccccc3)o2)cc1`, the IC50 in the data set on MDA-MB-468 [1] was 2700 nM; in data set [2] it was 139 nM; in [8] it was 140 nM; in data set [3], 68 nM; in the data set with MCF7 [4], 2400 nM; in the data set with MDA-MB-231 [5], 2000 nM. The compound also showed an IC50 with T47D [6] of 2800 nM. Also, the ΔTm in the data set with Calf thymus DNA came to 1.9 °C.
For the compound `CC(=O)O.Cc1ccc(-c2ccc(-c3ccc(C(=N)N)cc3)o2)cc1`, the IC50 in the data set with MDA-MB-468 [1] was found to be 3700 nM; in data set [2] it was 110 nM; in the data set with Plasmodium falciparum, 57.5 nM; in [3], 72 nM; in the data set on MCF7 [4], 4800 nM; in the data set with MDA-MB-231 [5], 3400 nM. In the data set with T47D [6], this compound displayed an IC50 of 3100 nM. For the same compound, in data set [7], the Drug uptake result is on record as “Not Active”. The ΔTm with Calf thymus DNA is 2.8 °C.
`Cc1c(-c2ccc(C(=N)N)cc2)oc(-c2ccc(C(=N)N)cc2)c1C`: the 50% inhibitory concentration (IC50) in data set [8] stood at 50 nM.
For the compound `N=C(N)c1ccc(-c2ccc(-c3ccccc3)[nH]2)cc1`, the half-inhibitory concentration (IC50) in the data set on MDA-MB-468 [1] stood at 3600 nM; in data set [2], 832 nM; in [3], 332 nM; in the data set on MCF7 [4], 3200 nM; in the data set on MDA-MB-231 [5], 3800 nM; in the data set on T47D [6] it was 3400 nM.
Turning to `N=C(N)c1ccc(-c2ccc(-c3cccc([N+](=O)[O-])c3)o2)cc1`, the IC50 with MDA-MB-468 [1] amounted to 3300 nM; in [2] it was 28 nM; in [3], 14.5 nM; in the data set with MCF7 [4], 3000 nM; in the data set on MDA-MB-231 [5], 2900 nM; with T47D [6], 3300 nM.
For `N=C(N)c1ccc(-c2ccc(-c3cccc(F)c3)o2)cc1`, the IC50 was found to be 2400 nM with MDA-MB-468 [1]; 111 nM in data set [2]; 98 nM in data set [3]; 2600 nM in the data set on MCF7 [4]; 2000 nM with MDA-MB-231 [5]; 2800 nM in the data set on T47D [6]. Further, in the data set with Calf thymus DNA, the ΔTm was found to be 3.2 °C.
Consider `Cn1c(-c2ccccc2)ccc1-c1ccc(C(=N)N)cc1`, for which the IC50 was found to be 3800 nM in the data set on MDA-MB-468 [1]; 943 nM in data set [2]; 410 nM in data set [3]; 2700 nM in the data set with MCF7 [4]; 2600 nM with MDA-MB-231 [5]; 2100 nM in the data set on T47D [6]. Besides, the ΔTm with Calf thymus DNA turned out to be 0.9 °C.
Turning to `N=C(N)c1ccc(-c2ccc(-c3ccc([N+](=O)[O-])cc3)o2)cc1`, the IC50 came out at 3400 nM with MDA-MB-468 [1]; 24 nM in data set [2]; 15.2 nM in data set [3]; 3200 nM in the data set on MCF7 [4]; 3100 nM with MDA-MB-231 [5]; 3800 nM in the data set on T47D [6].
Turning to `CCc1ccc(-c2ccc(-c3ccc(C(=N)N)cc3)o2)cc1`, the IC50 is 3300 nM with MDA-MB-468 [1]; 312 nM in data set [2]; 202 nM in data set [3]; 3200 nM with MCF7 [4]; 3400 nM with MDA-MB-231 [5]; 3000 nM in the data set with T47D [6].
Consider `CC(=O)O.COc1ccc(-c2ccc(-c3ccc(C(=N)N)cc3)o2)cc1`, for which the IC50 in the data set on MDA-MB-468 [1] was 2200 nM; in data set [2] it was 141 nM; with Plasmodium falciparum, 139 nM; in data set [3], 107 nM; in the data set on MCF7 [4], 2800 nM; in the data set with MDA-MB-231 [5], 2500 nM. In the data set on T47D [6], the IC50 is 3000 nM. Also, the Drug uptake entry in data set [7] is “Not Active”. In addition, the ΔTm in the data set with Calf thymus DNA came out at 2 °C.
